Data on five compounds can be found in ChEMBL document CHEMBL4837187, “Antimicrobial Benzyltetrahydroisoquinoline-Derived Alkaloids from the Leaves of Doryphora aromatica” (2021).

Some results are limits rather than exact numbers.

Format in all cases: functional
For experiment [1], the system named is Mycolicibacterium smegmatis. In words: Antimicrobial activity against Mycobacterium smegmatis MC2 155 ATCC […] assessed as microbial growth inhibition incubated for 16 hrs under aerobic condition by microplate reader assay.
Experiment [2] deals with Staphylococcus aureus. In words: Antimicrobial activity against Staphylococcus aureus assessed as microbial growth inhibition incubated for 16 hrs under aerobic condition by microplate reader assay.
Another experiment concerns Escherichia coli. Put plainly: Antimicrobial activity against Escherichia coli assessed as microbial growth inhibition incubated for 16 hrs under aerobic condition by microplate reader assay.
The test system of experiment [3] is Mycobacterium tuberculosis. In words: Antimicrobial activity against Mycobacterium tuberculosis H37Rv assessed as microbial growth inhibition incubated for 16 hrs under aerobic condition by microplate reader assay.
The subject of experiment [4] is Staphylococcus aureus. Put plainly: Antimicrobial activity against methicillin-resistant Staphylococcus aureus clinical isolate 2 assessed as microbial growth inhibition incubated for 16 hrs under aerobic condition by microplate reader assay.
Experiment [5] concerns Staphylococcus aureus. Put plainly: Antimicrobial activity against methicillin-resistant Staphylococcus aureus clinical isolate 1 assessed as microbial growth inhibition incubated for 16 hrs under aerobic condition by microplate reader assay.
Experiment [6] relates to Staphylococcus aureus. Put plainly: Antimicrobial activity against methicillin-resistant Staphylococcus aureus clinical isolate 3 assessed as microbial growth inhibition incubated for 16 hrs under aerobic condition by microplate reader assay.
The test system of experiment [7] is Staphylococcus aureus. Put plainly: Antimicrobial activity against methicillin-resistant Staphylococcus aureus clinical isolate 4 assessed as microbial growth inhibition incubated for 16 hrs under aerobic condition by microplate reader assay.
In experiment [8] the test system is Mycobacterium tuberculosis. In words: Antimicrobial activity against Mycobacterium tuberculosis MC2 6220 BSL2MIC assessed as microbial growth inhibition incubated for 16 hrs under aerobic condition by microplate reader assay.
The subject of experiment [9] is Mycobacterium tuberculosis. In words: Antimicrobial activity against Mycobacterium tuberculosis MC2 6220 BSL2 assessed as microbial growth inhibition at 6.25 uM incubated for 16 hrs under aerobic condition by microplate reader assay relative to control. As to conditions: read-out: GI.
For experiment [10], the system named is Staphylococcus aureus. In words: Antimicrobial activity against methicillin-resistant Staphylococcus aureus clinical isolate 5 assessed as microbial growth inhibition incubated for 16 hrs under aerobic condition by microplate reader assay.

In general, MIC refers to the smallest concentration in the dilution series that meets the test's criterion for growth inhibition. With `COc1cc2cc[n+](C)c(O)c2cc1OC`, the minimum inhibitory concentration (MIC) (in [1]; with Staphylococcus aureus [2]; with Escherichia coli) was > 100 µM each time.

With `COc1cc2cc[n+](C)c(Cc3ccc(Oc4cc(Cc5c6cc(OC)c(OC)cc6cc[n+]5C)ccc4O)cc3)c2cc1OC`, the minimal inhibitory concentration (MIC) (in experiment [1]; with Staphylococcus aureus [2]; in the experiment with Escherichia coli) was > 100 µM in each case.

Regarding `COc1cc2c(cc1OC)[C@@H](Cc1ccc(Oc3cc(Cc4c5cc(OC)c(OC)cc5cc[n+]4C)ccc3OC)cc1)N(C)CC2`, the MIC in experiment [3] is > 100 µM; in experiment [1] it was 39.4 µM; in the experiment with Staphylococcus aureus [4], 39.4 µM; with Staphylococcus aureus [2] it was 39.4 µM; in the experiment on Staphylococcus aureus [5] it was 39.4 µM; in the experiment with Staphylococcus aureus [6] it was 19.7 µM. Moreover, the MIC in the experiment on Staphylococcus aureus [7] stood at 39.4 µM; in the experiment with Escherichia coli, 158 µM; in experiment [8], 12.5 µM; in the experiment on Staphylococcus aureus [10], 19.7 µM. Further, the inhibition of growth at 6.25 µM in [9] was determined as 70%.

`COc1cc2cc[n+](C)c(Cc3ccc(OC)c(Oc4ccc(C=O)cc4)c3)c2cc1OC`: the MIC (in [1]; in the experiment on Staphylococcus aureus [2]; in the experiment with Escherichia coli) was > 100 µM throughout.

`COc1cc2cc[n+](C)c(Cc3ccc(Oc4cc(Cc5c6cc(OC)c(OC)cc6cc[n+]5C)ccc4OC)cc3)c2cc1OC`: the MIC in experiment [1] is 158 µM; in the experiment on Staphylococcus aureus [4] it was 39.6 µM; with Staphylococcus aureus [2], 9.9 µM; in the experiment on Staphylococcus aureus [5], 9.9 µM; in the experiment with Staphylococcus aureus [6], 39.6 µM; in the experiment with Staphylococcus aureus [7], 9.9 µM. Further, the MIC in the experiment on Escherichia coli came to 39.6 µM; with Staphylococcus aureus [10] it was 9.9 µM.
